Results: patent US9120798B2, “Amino-heteroaryl 7-hydroxy-spiropiperidine indolinyl antagonists of P2Y1 receptor” (priority 2012, dated 2015)
Read-outs that look alike come from different tables or passages of the source.

Experiments:
[1] = system: human platelet rich plasma (PRP); experiment: ADP induced platelet aggregation assay; format: cell-based; settings: 5 min, read-out: PA IC50 (μM) @ 10 μM ADP
Procedure: ADP Induced Platelet Aggregation Assay
The ability of P2Y1 antagonists covered in the present invention to inhibit platelet aggregation induced by 10 μM ADP was tested using human platelet rich plasma (PRP) as described in Platelet Protocols: Research and Clinical Laboratory Procedures (White, M. M. et al., Academic Press (1999)). Human blood was collected in 30 μM (final concentration in blood) argatroban (GSK) as the anticoagulant at a ratio of 1 ml per 9 ml of blood. The PRP was isolated by centrifugation at 170 g for 12 minutes. The platelet poor plasma (PPP) was used as the blank for optical aggregometry. Compounds of the present invention in DMSO solution was preincubated with 250 μl PRP at 37° C. for 1 minute with stirring speed of 1000 rpm. Aggregation was initiated by addition of 2.5 μl of 1 mM ADP (Chrono-log, Havertown, Pa.) for a final ADP concentration of 10 uM. Platelet aggregation was monitored using Optical Aggregometer (Chrono-log, Havertown, Pa.) and the area under the curve (AUC) at 5 minute was measured. IC50 was calculated using vehicle control as 0% inhibition.
The platelet aggregation assay measures the in vitro antiplatelet activity of a compound in platelet rich plasma. The assay is sensitive to plasma protein binding, and is believed to be a better predictor of actual in vivo activity.

[2] = target: cloned human P2Y1 receptors (Homo sapiens (Human), UniProt P47900); experiment: Binding Assay A: membrane binding assay, [33P] 2MeS-ADP, WGA FlashPlates
Sequence of cloned human P2Y1 receptors (P47900 whole entry): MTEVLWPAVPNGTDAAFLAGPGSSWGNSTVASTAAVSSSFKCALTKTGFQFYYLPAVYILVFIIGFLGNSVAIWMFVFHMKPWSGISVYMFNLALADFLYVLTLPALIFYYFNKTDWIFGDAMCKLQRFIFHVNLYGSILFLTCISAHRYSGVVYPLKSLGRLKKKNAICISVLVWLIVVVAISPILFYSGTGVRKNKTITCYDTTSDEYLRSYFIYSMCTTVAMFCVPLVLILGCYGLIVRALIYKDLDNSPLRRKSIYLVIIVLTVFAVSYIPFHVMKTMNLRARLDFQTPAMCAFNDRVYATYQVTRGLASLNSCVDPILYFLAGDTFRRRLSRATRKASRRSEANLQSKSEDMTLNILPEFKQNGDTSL
Text: A membrane binding assay was used to identify inhibitors of [^33P] […] The cDNA clone for human P2Y1 was obtained from Incyte Pharmaceuticals and its sequence confirmed by established techniques (for a compendium of techniques used see Ausubel, F. et al. Current Protocols in Molecular Biology, John Wiley and Sons, NY, N.Y. (1995)). The essential coding sequences were subcloned into pCDNA 3.1 (Invitrogen) to produce a P2Y1 expression construct. This construct was then transfected into the human embryonic kidney cell line HEK-293 and stable transfectants selected in GENETICIN® (G418 sulfate; Life Technologies). […] Membranes were prepared by growing HEK293 #49 in 150 mm dishes in DMEM/10% FBS in the presence of 1 mg/ml G418 until cells were 80-90% confluent. Plates were then washed with cold (4° C.) D-PBS twice and cells harvested by scraping into 10 mL D-PBS. Cells were pelleted by centrifugation (1,000 g, 10 min, 4° C.) and the resulting pellet resuspended in Lysis Buffer (10 mM Tris (7.4), 5 mM MgCl2 containing Complete protease inhibitor cocktail (Roche Cat #1873580) as recommended by the manufacturer). The suspension was then homogenized in a Dounce homogenizer (10-15 strokes; B pestle, on ice) and the homogenate spun at 1,000 g, 4° C., 5 min to pellet large debris. The supernatant was centrifuged at 150,000 g, 4° C., for 1 hour and the resulting membrane pellet resuspended in 0.5-1 mL of Buffer B (15 mM HEPES (7.4), 145 mM NaCl, 0.1 mM MgCl2, 5 mM EDTA, 5 mM KCl) and stored at −70° C. until used.
Binding reactions were performed in WGA FlashPlates (PerkinElmer Life Sciences, Cat # SMP105A) in a volume of 200 μL containing ˜45 fmol of P2Y1 receptor (5 μg of total protein), 0.5 nM [^33P] […] Reactions were allowed to proceed to completion at room temperature for 1 hour and then the aqueous solution aspirated. Plates were sealed and the residual [^33P] bound to the plate determined by scintillation counting.

[3] = starred values, FlashPlate, 0.5 nM [33P] 2MeS-ADP, Cheng-Prusoff, read-out: P2Y1 Ki (nM), *Using binding assay A

SMILES: CC(C)(C)CN1CCC2(CC1)CN(c1ccccc1Nc1nnc(-c3cccnc3)s1)c1c(O)ccc(Cl)c12 [Example 9, 4-Chloro-1′-neopentyl-1-(2-((5-(pyridin-3-yl)-1,3,4-thiadiazol-2-yl)amino)phenyl)spiro[indoline-3,4′-piperidin]-7-ol]
- IC50 [1]: 8.5 µM
- Ki [2]: 24.3 nM

SMILES: CC(C)(C)CN1CCC2(CC1)CN(c1ccccc1Nc1nnc(-c3cnccn3)s1)c1c(O)ccc(Cl)c12 [Example 12, 4-Chloro-1′-neopentyl-1-(2-((5-(pyrazin-2-yl)-1,3,4-thiadiazol-2-yl)amino)phenyl)spiro[indoline-3,4′-piperidin]-7-ol]
- IC50 [1]: 0.9 µM
- Ki [2, 3]: 6.5 nM

SMILES: Cc1cc(-c2nnc(Nc3ccccc3N3CC4(CCN(CC(C)(C)C)CC4)c4c(Cl)ccc(O)c43)s2)n(C)n1 [Example 13, 4-Chloro-1-(2-((5-(1,3-dimethyl-1H-pyrazol-5-yl)-1,3,4-thiadiazol-2-yl)amino)phenyl)-1′-neopentylspiro[indoline-3,4′-piperidin]-7-ol]
- IC50 [1]: 0.9 µM
- Ki [2, 3]: 6.6 nM

SMILES: CC(C)(C)CN1CCC2(CC1)CN(c1ccccc1Nc1nnc(C3CCOCC3)s1)c1c(O)ccc(Cl)c12 [Example 14, 4-Chloro-1′-neopentyl-1-(2-((5-(tetrahydro-2H-pyran-4-yl)-1,3,4-thiadiazol-2-yl)amino)phenyl)spiro[indoline-3,4′-piperidin]-7-ol]
- IC50 [1]: 23 µM
- Ki ([2]; read-out: P2Y1 Ki (nM), *Using binding assay A): 155 nM

SMILES: CC(C)(C)CN1CCC2(CC1)CN(c1ccccc1Nc1nnc(-c3ccc(C(F)(F)F)nc3)s1)c1c(O)ccc(Cl)c12 [Example 15, 4-Chloro-1′-neopentyl-1-(2-((5-(6-(trifluoromethyl)pyridin-3-yl)-1,3,4-thiadiazol-2-yl)amino)phenyl)spiro[indoline-3,4′-piperidin]-7-ol]
- IC50 [1]: 1.6 µM
- Ki [2]: 5.7 nM
